Data: patent US12083130B2, “Combination hormone formulations and therapies” (Caren Pharmaceuticals, Inc., priority 2019, dated 2024)

Key:
hypogonadal men = conditions: 12-year study, hypogonadal men who received T; […] for men who did not; cited from earlier work
Aβ levels = conditions: mice, cyclic administration, high levels 10 days in a row every 30 days; cited from earlier work
[1] = system: cortical rat neurons intoxicated with human AβO 1-42; experiment: Example 10: neuroprotection of cortical neurons intoxicated with human AβO 1-42; type: cell-based; conditions: BDNF 50 ng/ml; human AβO 1-42 10 μM, 24 h
Description: This is a prophetic example. The 40 and 42 amino acid forms are the most abundant B-amyloid (Aβ) peptide forms found in AD brain senile plaques, as disclosed herein. However, the number of senile plaques in a particular region of the AD brain correlates poorly with the local extent of neuron death or synaptic loss, or with cognitive impairment (Sisodia et al., 1990). Studies have shown a robust correlation between the soluble human Aβ 1-42 oligomer (AβO) levels and the extent of synaptic loss and severity of cognitive impairment (Sakono et al., 2010). This example investigates the neuroprotective effect of the composition prepared as described in Example 2 on cortical neurons incubated for 24 hours in the presence of AβO, an in vitro model of AD (Callizot et al., 2013). Brain-derived neurotrophic factor (BDNF) is used as a positive control in this study.
Cortical rat neurons are cultured at +37° C. in a humidified air/CO2 (95/5) atmosphere. After 11 days of culture, cortical neurons are intoxicated with human AβO 1-42 at 10 μM for 24 hrs. […]
The total number of cortical neurons that survive after 24 h incubation are counted to determine the end point evaluation. […]

C[C@]12CC[C@H]3[C@@H](CCC4=CC(=O)CC[C@@]43C)[C@@H]1CC[C@@H]2O [T, testosterone]
rate of prostate cancer (hypogonadal men): 2.7%

CC(=O)[C@H]1CC[C@H]2[C@@H]3CCC4=CC(=O)CC[C@]4(C)[C@H]3CC[C@]12C [progesterone]
Aβ levels (Aβ levels): decreased Aβ levels

B1: BDNF: Brain-derived neurotrophic factor, positive control (protein, UniProt P23560 19-247, looked up)
Neurotrophic factor BDNF …: APMKEANIRGQGGLAYPGVRTHGTLESVNGPKAGSRGLTSLADTFEHVIEELLDEDQKVRPNEENNKDADLYTSRVMLSSQVPLEPPLLFLLEEYKNYLDAANMSMRVRRHSDPARRGELSVCDSISEWVTAADKKTAVDMSGGTVTVLEKVPVSKGQLKQYFYETKCNPMGYTKEGCRGIDKRHWNSQCRTTQSYVRALTMDSKKRIGWRFIRIDTSCVCTLTIKRGR
cell death resulting from AβO [1]: inhibits cell death resulting from AβO
